Results published in ChEMBL document CHEMBL5036347, “Design of the naphthyl-diarylpyrimidines as potent non-nucleoside reverse transcriptase inhibitors (NNRTIs) via structure-based extension into the entrance channel” (Eur J Med Chem, 2021).
Converted amounts (≈) assume the structure as drawn.

Assays:
[1] = Selectivity index, ratio of CC50 for cytotoxicity against human MT4 cells to EC50 of Anti-HIV activity against HIV-1 IIIB infected in human MT4; type: toxicity, cell-based; conditions: read-out: Selectivity Index
[2] = tested on: Human immunodeficiency virus 1; experiment: Antiviral activity against HIV1 harboring reverse transcriptase L100I mutant infected in human MT4 cells assessed as protection against virus-induced cytopathic effect incubated for 5 days by MTT assay; type: functional, organism-based; conditions: Human immunodeficiency virus 1, MT4, 120 h
[3] = Resistance fold, ratio of EC50 for HIV1 harboring reverse transcriptase E138K mutant […] to EC50 for wild type HIV1 […]; type: functional
[4] = Cytotoxicity against human MT4 cells assessed as reduction in cell viability incubated for 5 days by MTT assay; type: cell-based; conditions: human, MT4 cells; time 5 day
[5] = Resistance fold, ratio of EC50 for HIV1 harboring reverse transcriptase Y188L mutant […] to EC50 for wild type HIV1 […]; type: functional
[6] = Resistance fold, ratio of EC50 for HIV1 harboring reverse transcriptase F227L/V106A double mutant […] to EC50 for wild type HIV1 […]; type: functional
[7] = tested on: Human immunodeficiency virus 1; experiment: Antiviral activity against HIV1 harboring reverse transcriptase F227L/V106A mutant infected in human MT4 cells assessed as protection against virus-induced cytopathic effect incubated for 5 days by MTT assay; type: functional, organism-based; conditions: Human immunodeficiency virus 1, MT4, 120 h
[8] = target: Human immunodeficiency virus type 1 reverse transcriptase (Human immunodeficiency virus 1, UniProt Q72547, K103N/Y181C); experiment: Inhibition of HIV1 reverse transcriptase K103N/Y181C double mutant using oligo(dT)16 as primer measured after 40 mins by picogreen-dye based spectrofluorimetric analysis
[9] = Resistance fold, ratio of EC50 for HIV1 harboring reverse transcriptase K103N/Y181C double mutant […] to EC50 for wild type HIV1 […]; type: functional
[10] = tested on: Human immunodeficiency virus 1; experiment: Anti-HIV activity against HIV-1 IIIB infected in human MT4 cells assessed as reduction in virus-induced cytopathic effect incubated for 5 days by MTT assay; type: functional, organism-based; conditions: Human immunodeficiency virus 1, IIIB, MT4, 120 h
[11] = Water solubility of compound at pH 7.4 at 0.1 to 10 mg by HPLC-UV analysis; type: physicochemical; conditions: dose 0.1-10 mg
[12] = tested on: Human immunodeficiency virus 1; experiment: Antiviral activity against HIV1 harboring reverse transcriptase E138K mutant infected in human MT4 cells assessed as protection against virus-induced cytopathic effect incubated for 5 days by MTT assay; type: functional, organism-based; conditions: Human immunodeficiency virus 1, MT4, 120 h
[13] = tested on: Human immunodeficiency virus 1; experiment: Antiviral activity against HIV1 harboring reverse transcriptase Y181C mutant infected in human MT4 cells assessed as protection against virus-induced cytopathic effect incubated for 5 days by MTT assay; type: functional, organism-based; conditions: Human immunodeficiency virus 1, MT4, 120 h
[14] = tested on: Human immunodeficiency virus 1; experiment: Antiviral activity against HIV1 harboring reverse transcriptase Y188L mutant infected in human MT4 cells assessed as protection against virus-induced cytopathic effect incubated for 5 days by MTT assay; type: functional, organism-based; conditions: Human immunodeficiency virus 1, MT4, 120 h
[15] = Water solubility of compound at pH 2 at 0.1 to 10 mg by HPLC-UV analysis; type: physicochemical; conditions: dose 0.1-10 mg
[16] = tested on: Human immunodeficiency virus 1; experiment: Antiviral activity against HIV1 harboring reverse transcriptase K103N mutant infected in human MT4 cells assessed as protection against virus-induced cytopathic effect incubated for 5 days by MTT assay; type: functional, organism-based; conditions: Human immunodeficiency virus 1, MT4, 120 h
[17] = target: Human immunodeficiency virus type 1 reverse transcriptase (Human immunodeficiency virus 1, UniProt Q72547, Y181C); experiment: Inhibition of HIV1 reverse transcriptase Y181C mutant using oligo(dT)16 as primer measured after 40 mins by picogreen-dye based spectrofluorimetric analysis
[18] = Water solubility of compound at pH 7 at 0.1 to 10 mg by HPLC-UV analysis; type: physicochemical; conditions: dose 0.1-10 mg
[19] = target: Human immunodeficiency virus type 1 reverse transcriptase (Human immunodeficiency virus 1, UniProt Q72547, L100I); experiment: Inhibition of HIV1 reverse transcriptase L100I mutant using oligo(dT)16 as primer measured after 40 mins by picogreen-dye based spectrofluorimetric analysis
[20] = tested on: Human immunodeficiency virus 1; experiment: Antiviral activity against HIV1 harboring reverse transcriptase K103N/Y181C double mutant infected in human MT4 cells assessed as protection against virus-induced cytopathic effect incubated for 5 days by MTT assay; type: functional, organism-based; conditions: Human immunodeficiency virus 1, MT4, 120 h
[21] = target: Human immunodeficiency virus type 1 reverse transcriptase (Human immunodeficiency virus 1, UniProt Q72547, Y188L); experiment: Inhibition of HIV1 reverse transcriptase Y188L mutant using oligo(dT)16 as primer measured after 40 mins by picogreen-dye based spectrofluorimetric analysis
[22] = target: Human immunodeficiency virus type 1 reverse transcriptase (Human immunodeficiency virus 1, UniProt Q72547, E138K); experiment: Inhibition of HIV1 reverse transcriptase E138K mutant using oligo(dT)16 as primer measured after 40 mins by picogreen-dye based spectrofluorimetric analysis
[23] = target: Human immunodeficiency virus type 1 reverse transcriptase (Human immunodeficiency virus 1, UniProt Q72547); experiment: Inhibition of wild type HIV1 reverse transcriptase using oligo(dT)16 as primer measured after 40 mins by picogreen-dye based spectrofluorimetric analysis
[24] = Resistance fold, ratio of EC50 for HIV1 harboring reverse transcriptase K103N mutant […] to EC50 for wild type HIV1 […]; type: functional
[25] = tested on: Human immunodeficiency virus 2; experiment: Anti-HIV activity against HIV2 ROD infected in human MT4 cells assessed as reduction in virus-induced cytopathic effect incubated for 5 days by MTT assay; type: functional, organism-based; conditions: Human immunodeficiency virus 2, ROD, MT4, 120 h
[26] = Resistance fold, ratio of EC50 for HIV1 harboring reverse transcriptase Y181C mutant […] to EC50 for wild type HIV1 […]; type: functional
[27] = Resistance fold, ratio of EC50 for HIV1 harboring reverse transcriptase L100I mutant […] to EC50 for wild type HIV1 […]; type: functional
[28] = target: Human immunodeficiency virus type 1 reverse transcriptase (Human immunodeficiency virus 1, UniProt Q72547, K103N); experiment: Inhibition of HIV1 reverse transcriptase K103N mutant using oligo(dT)16 as primer measured after 40 mins by picogreen-dye based spectrofluorimetric analysis
[29] = target: Human immunodeficiency virus type 1 reverse transcriptase (Human immunodeficiency virus 1, UniProt Q72547, F227L/V106A); experiment: Inhibition of HIV1 reverse transcriptase F227L/V106A double mutant using oligo(dT)16 as primer measured after 40 mins by picogreen-dye based spectrofluorimetric analysis

## CCNc1cc(Oc2c(OC)cc3cc(C#N)ccc3c2OC)nc(Nc2ccc(C#N)cc2)n1
[1]
  selectivity ratio: > 30500
[2]
  EC50: 0.13 µM
[3]
  Ratio EC50: 2
[4]
  CC50 at 120 h: > 125 µM
[5]
  Ratio EC50: 64
[6]
  Ratio EC50: 463
[7]
  EC50: 4.21 µM
[8]
  IC50: 0.43 µM
[9]
  Ratio EC50: 46
[10]
  EC50: 0.0091 µM
[11]
  solubility: 9 µg/mL (≈ 19.3 µM)
[12]
  EC50: 0.016 µM
[13]
  EC50: 0.061 µM
[14]
  EC50: 0.58 µM
[15]
  solubility: 1 µg/mL (≈ 2.14 µM)
[16]
  EC50: 0.0088 µM
[17]
  IC50: 0.16 µM
[18]
  solubility: < 1 µg/mL
[19]
  IC50: 1.31 µM
[20]
  EC50: 0.42 µM
[21]
  IC50: 2.32 µM
[22]
  IC50: 0.09 µM
[23]
  IC50: 0.06 µM
[24]
  Ratio EC50: 1
[25]
  EC50: > 1000 µM
[26]
  Ratio EC50: 7
[27]
  Ratio EC50: 14
[28]
  IC50: 0.12 µM
[29]
  IC50: 1.16 µM

## COc1cc2cc(C#N)ccc2c(OC)c1Oc1cc(N)nc(Nc2ccc(C#N)cc2)n1
[1]
  selectivity ratio: 3500
[2]
  EC50: 0.038 µM
[3]
  Ratio EC50: 3
[4]
  CC50 at 120 h: 19 µM
[5]
  Ratio EC50: 33
[6]
  Ratio EC50: 61
[7]
  EC50: 0.33 µM
[8]
  IC50: 0.06 µM
[9]
  Ratio EC50: 6
[10]
  EC50: 0.0054 µM
[11]
  solubility: 1 µg/mL (≈ 2.28 µM)
[12]
  EC50: 0.014 µM
[13]
  EC50: 0.016 µM
[14]
  EC50: 0.176 µM
[15]
  solubility: < 1 µg/mL
[16]
  EC50: 0.0053 µM
[17]
  IC50: 0.04 µM
[18]
  solubility: < 1 µg/mL
[19]
  IC50: 0.07 µM
[20]
  EC50: 0.03 µM
[21]
  IC50: 0.15 µM
[22]
  IC50: 0.02 µM
[23]
  IC50: 0.02 µM
[24]
  Ratio EC50: 1
[25]
  EC50: 7.28 µM
[26]
  Ratio EC50: 3
[27]
  Ratio EC50: 7
[28]
  IC50: 0.04 µM
[29]
  IC50: 0.12 µM

## COc1cc2cc(C#N)ccc2c(OC)c1Oc1cc(NC2CCCC2)nc(Nc2ccc(C#N)cc2)n1
[1]
  selectivity ratio: > 5170
[2]
  IC50: 3.69 µM
[3]
  Ratio EC50: 5
[4]
  CC50 at 120 h: > 125 µM
[5]
  Ratio EC50: 158
[6]
  Ratio EC50: 2742
[7]
  EC50: 131 µM
[9]
  Ratio EC50: 138
[10]
  IC50: 0.048 µM
[12]
  EC50: 0.23 µM
[13]
  EC50: 0.53 µM
[14]
  EC50: 7.53 µM
[16]
  EC50: 0.055 µM
[20]
  EC50: 6.6 µM
[23]
  IC50: 0.21 µM
[24]
  Ratio EC50: 1
[25]
  EC50: > 1000 µM
[26]
  Ratio EC50: 11
[27]
  Ratio EC50: 77

## COc1cc2cc(C#N)ccc2c(OC)c1Oc1cc(NCC2CCOC2)nc(Nc2ccc(C#N)cc2)n1 (stereo not drawn)
[1]
  selectivity ratio: > 12500
[2]
  EC50: 0.37 µM
[3]
  Ratio EC50: 2
[4]
  CC50 at 120 h: > 125 µM
[5]
  Ratio EC50: 35
[6]
  Ratio EC50: 410
[7]
  EC50: 7.78 µM
[9]
  Ratio EC50: 36
[10]
  EC50: 0.019 µM
[12]
  EC50: 0.047 µM
[13]
  EC50: 0.17 µM
[14]
  EC50: 0.67 µM
[16]
  EC50: 0.016 µM
[20]
  EC50: 0.68 µM
[23]
  IC50: 0.06 µM
[24]
  Ratio EC50: 1
[25]
  EC50: > 1000 µM
[26]
  Ratio EC50: 9
[27]
  Ratio EC50: 22

## COc1cc2cc(C#N)ccc2c(OC)c1Oc1cc(NCCCCO)nc(Nc2ccc(C#N)cc2)n1
[1]
  selectivity ratio: 2190
[2]
  EC50: 0.3 µM
[3]
  Ratio EC50: 3
[4]
  CC50 at 120 h: 39.1 µM
[5]
  Ratio EC50: 41
[6]
  Ratio EC50: 158
[7]
  EC50: 2.81 µM
[9]
  Ratio EC50: 31
[10]
  EC50: 0.018 µM
[12]
  EC50: 0.047 µM
[13]
  EC50: 0.19 µM
[14]
  EC50: 0.74 µM
[16]
  EC50: 0.02 µM
[20]
  EC50: 0.55 µM
[23]
  IC50: 0.08 µM
[24]
  Ratio EC50: 1
[25]
  EC50: 4.93 µM
[26]
  Ratio EC50: 11
[27]
  Ratio EC50: 17

## COc1cc2cc(C#N)ccc2c(OC)c1Oc1cc(NC2CCOC2)nc(Nc2ccc(C#N)cc2)n1 (stereo not drawn)
[1]
  selectivity ratio: > 19000
[2]
  EC50: 0.23 µM
[3]
  Ratio EC50: 2
[4]
  CC50 at 120 h: > 125 µM
[5]
  Ratio EC50: 43
[6]
  Ratio EC50: 156
[7]
  EC50: 2.01 µM
[9]
  Ratio EC50: 49
[10]
  EC50: 0.013 µM
[12]
  EC50: 0.047 µM
[13]
  EC50: 0.085 µM
[14]
  EC50: 0.56 µM
[16]
  EC50: 0.028 µM
[20]
  EC50: 0.64 µM
[23]
  IC50: 0.18 µM
[24]
  Ratio EC50: 1
[25]
  EC50: > 1000 µM
[26]
  Ratio EC50: 7
[27]
  Ratio EC50: 19

## COc1cc2cc(C#N)ccc2c(OC)c1Oc1cc(NCC(O)CO)nc(Nc2ccc(C#N)cc2)n1 (stereo not drawn)
[1]
  selectivity ratio: 293
[2]
  EC50: 1.04 µM
[3]
  Ratio EC50: 3
[4]
  CC50 at 120 h: 29.5 µM
[5]
  Ratio EC50: 13
[6]
  Ratio EC50: 31
[7]
  EC50: 3.11 µM
[9]
  Ratio EC50: 9
[10]
  EC50: 0.1 µM
[12]
  EC50: 0.28 µM
[13]
  EC50: 0.73 µM
[14]
  EC50: 1.26 µM
[16]
  EC50: 0.093 µM
[20]
  EC50: 0.93 µM
[23]
  IC50: 0.08 µM
[24]
  Ratio EC50: 1
[25]
  EC50: > 1000 µM
[26]
  Ratio EC50: 7
[27]
  Ratio EC50: 17
